Assay results taken from ChEMBL document CHEMBL4152291, “Synthesis and biological activities of dithiocarbamates containing 2(5H)-furanone-piperazine” (Eur J Med Chem, 2018).

Columns and labels:
SMMC-7721 [1] = experiment: Growth inhibition of human SMMC7721 cells at 0.5 ug/ml after 72 hrs by MTT assay relative to control; format: functional; conditions: SMMC-7721, 72 h, read-out: GI
SMMC-7721 [2] = experiment: Growth inhibition of human SMMC7721 cells at 2.5 ug/ml after 72 hrs by MTT assay relative to control; format: functional; conditions: SMMC-7721, 72 h, read-out: GI
SMMC-7721 [3] = experiment: Growth inhibition of human SMMC7721 cells at 5 ug/ml after 72 hrs by MTT assay relative to control; format: functional; conditions: SMMC-7721, 72 h, read-out: GI
[4] = Growth inhibition of human LO2 cells at 5 ug/ml after 72 hrs by MTT assay relative to control; format: cell-based, L02; conditions: read-out: GI
SMMC-7721 [5] = experiment: Growth inhibition of human SMMC7721 cells at 0.1 ug/ml after 72 hrs by MTT assay relative to control; format: functional; conditions: SMMC-7721, 72 h, read-out: GI
[6] = Growth inhibition of human LO2 cells at 0.1 ug/ml after 72 hrs by MTT assay relative to control; format: cell-based, L02; conditions: read-out: GI
[7] = Growth inhibition of human LO2 cells at 0.5 ug/ml after 72 hrs by MTT assay relative to control; format: cell-based, L02; conditions: read-out: GI
[8] = Growth inhibition of human LO2 cells at 2.5 ug/ml after 72 hrs by MTT assay relative to control; format: cell-based, L02; conditions: read-out: GI
[9] = Growth inhibition of human LO2 cells at 0.01 ug/ml after 72 hrs by MTT assay relative to control; format: cell-based, L02; conditions: read-out: GI
HeLa [10] = experiment: Cytotoxicity against human HeLa cells; format: functional, cell-based
SMMC-7721 [11] = experiment: Growth inhibition of human SMMC7721 cells at 0.01 ug/ml after 72 hrs by MTT assay relative to control; format: functional; conditions: SMMC-7721, 72 h, read-out: GI
SMMC-7721 [12] = experiment: Induction of apoptosis in human SMMC7721 cells assessed as late apoptotic cells at 5 ug/ml after 72 hrs by Annexin-V-FITC/propidium iodide staining based flow cytometry (reference value: 3.34 to 3.62%); format: functional
SMMC-7721 [13] = experiment: Induction of apoptosis in human SMMC7721 cells assessed as live cells at 0.1 ug/ml after 72 hrs by Annexin-V-FITC/propidium iodide staining based flow cytometry (reference value: 92.87 to 93.39%); format: functional
SMMC-7721 [14] = experiment: Induction of apoptosis in human SMMC7721 cells assessed as live cells at 0.5 ug/ml after 72 hrs by Annexin-V-FITC/propidium iodide staining based flow cytometry (reference value: 92.87 to 93.39%); format: functional
SMMC-7721 [15] = experiment: Induction of apoptosis in human SMMC7721 cells assessed as necrotic cells at 5 ug/ml after 72 hrs by Annexin-V-FITC/propidium iodide staining based flow cytometry (reference value: 0.39 to 0.5%); format: functional
HeLa [16] = experiment: Growth inhibition of human HeLa cells at 12.5 ug/ml after 72 hrs by MTT assay relative to control; format: functional; conditions: read-out: GI
SMMC-7721 [17] = experiment: Induction of apoptosis in human SMMC7721 cells assessed as early apoptotic cells at 0.1 ug/ml after 72 hrs by Annexin-V-FITC/propidium iodide staining based flow cytometry (reference value: 2.61 to 3.3%); format: functional
HeLa [18] = experiment: Growth inhibition of human HeLa cells at 6.25 ug/ml after 72 hrs by MTT assay relative to control; format: functional; conditions: read-out: GI
SMMC-7721 [19] = experiment: Induction of apoptosis in human SMMC7721 cells assessed as necrotic cells at 0.1 ug/ml after 72 hrs by Annexin-V-FITC/propidium iodide staining based flow cytometry (reference value: 0.39 to 0.5%); format: functional
SMMC-7721 [20] = experiment: Induction of apoptosis in human SMMC7721 cells assessed as late apoptotic cells at 0.5 ug/ml after 72 hrs by Annexin-V-FITC/propidium iodide staining based flow cytometry (reference value: 3.34 to 3.62%); format: functional
SMMC-7721 [21] = experiment: Induction of apoptosis in human SMMC7721 cells assessed as early apoptotic cells at 5 ug/ml after 72 hrs by Annexin-V-FITC/propidium iodide staining based flow cytometry (reference value: 2.61 to 3.3%); format: functional
HeLa [22] = experiment: Growth inhibition of human HeLa cells at 25 ug/ml after 72 hrs by MTT assay relative to control; format: functional; conditions: read-out: GI
SMMC-7721 [23] = experiment: Induction of apoptosis in human SMMC7721 cells assessed as early apoptotic cells at 0.5 ug/ml after 72 hrs by Annexin-V-FITC/propidium iodide staining based flow cytometry (reference value: 2.61 to 3.3%); format: functional
HeLa [24] = experiment: Growth inhibition of human HeLa cells at 50 ug/ml after 72 hrs by MTT assay relative to control; format: functional; conditions: read-out: GI
HeLa [25] = experiment: Growth inhibition of human HeLa cells at 100 ug/ml after 72 hrs by MTT assay relative to control; format: functional; conditions: read-out: GI
SMMC-7721 [26] = experiment: Induction of apoptosis in human SMMC7721 cells assessed as necrotic cells at 0.5 ug/ml after 72 hrs by Annexin-V-FITC/propidium iodide staining based flow cytometry (reference value: 0.39 to 0.5%); format: functional
SMMC-7721 [27] = experiment: Induction of apoptosis in human SMMC7721 cells assessed as increase in early apoptotic cells after 72 hrs by Annexin-V-FITC/propidium iodide staining based flow cytometry; format: functional, cell-based
SMMC-7721 [28] = experiment: Induction of apoptosis in human SMMC7721 cells assessed as live cells at 5 ug/ml after 72 hrs by Annexin-V-FITC/propidium iodide staining based flow cytometry (reference value: 92.87 to 93.39%); format: functional
SMMC-7721 [29] = experiment: Induction of apoptosis in human SMMC7721 cells assessed as late apoptotic cells at 0.1 ug/ml after 72 hrs by Annexin-V-FITC/propidium iodide staining based flow cytometry (reference value: 3.34 to 3.62%); format: functional
SMMC-7721 [30] = experiment: Induction of apoptosis in human SMMC7721 cells assessed as increase in late apoptotic cells after 72 hrs by Annexin-V-FITC/propidium iodide staining based flow cytometry; format: functional, cell-based
HeLa [31] = experiment: Cytotoxicity against human HeLa cells assessed as inhibition of cell proliferation after 72 hrs by MTT assay; format: functional, cell-based
L02 = experiment: Cytotoxicity against human LO2 cells assessed as inhibition of cell proliferation after 72 hrs by MTT assay; format: cell-based; conditions: L02, 72 h

With `Nc1ccn([C@@H]2O[C@H](CO)[C@@H](O)[C@@H]2O)c(=O)n1` [CYTARABINE] the inhibition of growth at 0.5 µg/mL (SMMC-7721 [1]) was 24%, the inhibition of growth at 2.5 µg/mL (SMMC-7721 [2]) was 44.5% and the inhibition of growth at 5 µg/mL (SMMC-7721 [3]) was 63.1%. For the same molecule, the inhibition at 72 h, 5 ug/ml [4] was 25.4%, the inhibition of growth at 0.1 µg/mL (SMMC-7721 [5]) was 16.1% and the inhibition at 72 h, 0.1 ug/ml [6] was 3.02%. For the same molecule, the inhibition at 72 h, 0.5 ug/ml [7] was 13.3%, the inhibition at 72 h, 2.5 ug/ml [8] was 18.8% and the inhibition at 72 h, 0.01 ug/ml [9] was -1.76%. For the same molecule, the IC50 (HeLa [10]) was 950 nM and the inhibition of growth at 0.01 µg/mL (SMMC-7721 [11]) was 13%.
For `CC[C@]1(O)C[C@H]2CN(CCc3c([nH]c4ccccc34)[C@@](C(=O)OC)(c3cc4c(cc3OC)N(C=O)[C@H]3[C@@](O)(C(=O)OC)[C@H](OC(C)=O)[C@]5(CC)C=CCN6CC[C@]43[C@@H]65)C2)C1` [VINCRISTINE], the inhibition of growth at 0.5 µg/mL (SMMC-7721 [1]) was 23.9%, the inhibition of growth at 2.5 µg/mL (SMMC-7721 [2]) was 45.7% and the inhibition of growth at 5 µg/mL (SMMC-7721 [3]) was 68.5%. The inhibition at 72 h, 5 ug/ml [4] was 16.5%, the inhibition of growth at 0.1 µg/mL (SMMC-7721 [5]) was 17.7% and the inhibition at 72 h, 0.1 ug/ml [6] was 1.39%. It also gave an inhibition at 72 h, 0.5 ug/ml [7] of 7.26%, an inhibition at 72 h, 2.5 ug/ml [8] of 11.5% and an inhibition at 72 h, 0.01 ug/ml [9] of 1.6%. For the same molecule, the inhibition of growth at 0.01 µg/mL (SMMC-7721 [11]) was 12.3%.
For `CC(C)[C@@H]1CC[C@@H](C)C[C@H]1O[C@H]1OC(=O)C(Br)=C1N1CCN(C(=S)SCc2ccccc2)CC1`, the inhibition of growth at 0.5 µg/mL (SMMC-7721 [1]) was 20.9%, the inhibition of growth at 2.5 µg/mL (SMMC-7721 [2]) was 39.2% and the Activity (SMMC-7721 [12]) was 18.99 - 20.66%. The inhibition of growth at 5 µg/mL (SMMC-7721 [3]) was 75%, the Activity (SMMC-7721 [13]) was 85.91 - 89.74% and the Activity (SMMC-7721 [14]) was 81.84 - 83.6%. For the same molecule, the Activity (SMMC-7721 [15]) was 7.72 - 9.59%, the inhibition of growth at 12.5 µg/mL (HeLa [16]) was 37.5% and the Activity (SMMC-7721 [17]) was 2.75 - 3.41%. The inhibition of growth at 6.25 µg/mL (HeLa [18]) was 32%, the Activity (SMMC-7721 [19]) was 1.29 - 4.56% and the inhibition at 72 h, 5 ug/ml [4] was 25.8%. The Activity (SMMC-7721 [20]) was 8.98 - 11.36%, the Activity (SMMC-7721 [21]) was 6.06 - 6.14% and the inhibition of growth at 25 µg/mL (HeLa [22]) was 43.5%. For the same molecule, the inhibition of growth at 0.1 µg/mL (SMMC-7721 [5]) was 17%, the Activity (SMMC-7721 [23]) was 4.01 - 5.07% and the inhibition of growth at 50 µg/mL (HeLa [24]) was 46.4%. For the same molecule, the inhibition at 72 h, 0.1 ug/ml [6] was 7.48%, the inhibition of growth at 100 µg/mL (HeLa [25]) was 45% and the inhibition at 72 h, 0.5 ug/ml [7] was 15%. The Activity (SMMC-7721 [26]) was 2.17 - 4.01%, the Activity (SMMC-7721 [27]) was “Dose-dependent effect” and the Activity (SMMC-7721 [28]) was 64.53 - 65.54%. The inhibition at 72 h, 2.5 ug/ml [8] was 15.6%, the inhibition at 72 h, 0.01 ug/ml [9] was -3.31% and the Activity (SMMC-7721 [29]) was 5.56 - 7.39%. For the same molecule, the Activity (SMMC-7721 [30]) was “Dose-dependent effect”, the inhibition of growth at 0.01 µg/mL (SMMC-7721 [11]) was 9.09% and the Activity (HeLa [31]) was “Dose-dependent effect”. The IC50 (HeLa [31]) was 260 nM.
With `C=CCSC(=S)N1CCN(C2=C(Br)C(=O)O[C@@H]2O[C@@H]2C[C@H](C)CC[C@H]2C(C)C)CC1` the inhibition of growth at 0.5 µg/mL (SMMC-7721 [1]) was 21%, the IC50 (L02) was 45800 nM and the inhibition of growth at 2.5 µg/mL (SMMC-7721 [2]) was 40.7%. For the same molecule, the inhibition of growth at 5 µg/mL (SMMC-7721 [3]) was 67.4%, the inhibition of growth at 12.5 µg/mL (HeLa [16]) was 44.5% and the inhibition of growth at 6.25 µg/mL (HeLa [18]) was 45.6%. It also gave an inhibition at 72 h, 5 ug/ml [4] of 12.9%, an inhibition of growth at 25 µg/mL (HeLa [22]) of 41.7% and an inhibition of growth at 0.1 µg/mL (SMMC-7721 [5]) of 17%. The inhibition of growth at 50 µg/mL (HeLa [24]) was 53.8%, the inhibition at 72 h, 0.1 ug/ml [6] was 5.21% and the inhibition of growth at 100 µg/mL (HeLa [25]) was 57.4%. For the same molecule, the inhibition at 72 h, 0.5 ug/ml [7] was 9.79%, the inhibition at 72 h, 2.5 ug/ml [8] was 11.2% and the inhibition at 72 h, 0.01 ug/ml [9] was -1.9%. The inhibition of growth at 0.01 µg/mL (SMMC-7721 [11]) was 7.87%, the Activity (HeLa [31]) was “Dose-dependent effect” and the IC50 (HeLa [31]) was 60 nM.
With `COC(=O)CSC(=S)N1CCN(C2=C(Br)C(=O)O[C@@H]2O[C@@H]2C[C@H](C)CC[C@H]2C(C)C)CC1` the inhibition of growth at 0.5 µg/mL (SMMC-7721 [1]) was 21.4%, the inhibition of growth at 2.5 µg/mL (SMMC-7721 [2]) was 40.1% and the inhibition of growth at 5 µg/mL (SMMC-7721 [3]) was 64.5%. It also gave an inhibition of growth at 12.5 µg/mL (HeLa [16]) of 10.9%, an inhibition of growth at 6.25 µg/mL (HeLa [18]) of 8.57% and an inhibition at 72 h, 5 ug/ml [4] of 26.6%. For the same molecule, the inhibition of growth at 25 µg/mL (HeLa [22]) was 11.3%, the inhibition of growth at 0.1 µg/mL (SMMC-7721 [5]) was 9.68% and the inhibition of growth at 50 µg/mL (HeLa [24]) was 35.3%. It also gave an inhibition at 72 h, 0.1 ug/ml [6] of 6.98%, an inhibition of growth at 100 µg/mL (HeLa [25]) of 36.9% and an inhibition at 72 h, 0.5 ug/ml [7] of 11.1%. The inhibition at 72 h, 2.5 ug/ml [8] was 15%, the inhibition at 72 h, 0.01 ug/ml [9] was 0.87% and the inhibition of growth at 0.01 µg/mL (SMMC-7721 [11]) was 4.41%. The Activity (HeLa [31]) was “Dose-dependent effect” and the IC50 (HeLa [31]) was 320 nM.
